Measured values as given in the NIST ThermoML archive (doi:10.1016/j.jct.2011.08.016).
Numbers after ± are expanded uncertainties.

Experiment: xn = mol fraction of the nth substance listed
Conditions: Liquid, Vibrating tube method

CCCCCCCCCC [decane] + CCCCCCCC
Conditions | mass density [kg/m3]
343.12 K, 23000 kPa, x2 = 0.7736 | 693.03 ± 0.56
343.12 K, 24000 kPa, x2 = 0.2801 | 707.17 ± 0.55
343.12 K, 24000 kPa, x2 = 0.5314 | 700.89 ± 0.56
343.12 K, 24000 kPa, x2 = 0.7736 | 693.84 ± 0.56
343.12 K, 25000 kPa, x2 = 0.2801 | 707.92 ± 0.55
343.12 K, 25000 kPa, x2 = 0.5314 | 701.69 ± 0.56
343.12 K, 25000 kPa, x2 = 0.7736 | 694.61 ± 0.57
343.13 K, 1000 kPa, x2 = 0.9623 | 664.48 ± 0.42
343.13 K, 2000 kPa, x2 = 0.9623 | 665.59 ± 0.43
343.13 K, 3000 kPa, x2 = 0.9623 | 666.77 ± 0.43
343.13 K, 4000 kPa, x2 = 0.9623 | 667.86 ± 0.44
343.13 K, 5000 kPa, x2 = 0.9623 | 668.95 ± 0.44
343.13 K, 6000 kPa, x2 = 0.9623 | 670.06 ± 0.45
343.13 K, 7000 kPa, x2 = 0.9623 | 671.17 ± 0.46
343.13 K, 8000 kPa, x2 = 0.9623 | 672.27 ± 0.46
343.13 K, 9000 kPa, x2 = 0.9623 | 673.35 ± 0.47
343.13 K, 10000 kPa, x2 = 0.9623 | 674.41 ± 0.47
343.13 K, 10990 kPa, x2 = 0.9623 | 675.48 ± 0.48
343.13 K, 12000 kPa, x2 = 0.9623 | 676.54 ± 0.49
343.13 K, 13000 kPa, x2 = 0.9623 | 677.56 ± 0.49
343.13 K, 14000 kPa, x2 = 0.9623 | 678.58 ± 0.5
343.13 K, 15000 kPa, x2 = 0.9623 | 679.6 ± 0.51
343.13 K, 16000 kPa, x2 = 0.9623 | 680.56 ± 0.51
343.13 K, 17000 kPa, x2 = 0.9623 | 681.54 ± 0.52
343.13 K, 18000 kPa, x2 = 0.9623 | 682.46 ± 0.53
343.13 K, 19000 kPa, x2 = 0.9623 | 683.41 ± 0.53
343.13 K, 20000 kPa, x2 = 0.9623 | 684.31 ± 0.54
343.13 K, 21000 kPa, x2 = 0.9623 | 685.19 ± 0.55
343.13 K, 22000 kPa, x2 = 0.9623 | 686.05 ± 0.56
343.13 K, 23000 kPa, x2 = 0.9623 | 686.9 ± 0.56
343.13 K, 24000 kPa, x2 = 0.9623 | 687.72 ± 0.57
343.13 K, 25000 kPa, x2 = 0.9623 | 688.5 ± 0.58
353.08 K, 1000 kPa, x2 = 0.9623 | 656.17 ± 0.42
353.08 K, 2000 kPa, x2 = 0.9623 | 657.39 ± 0.43
353.08 K, 3000 kPa, x2 = 0.9623 | 658.62 ± 0.43
353.08 K, 4000 kPa, x2 = 0.9623 | 659.85 ± 0.44
353.08 K, 5000 kPa, x2 = 0.9623 | 660.99 ± 0.45
353.08 K, 6000 kPa, x2 = 0.9623 | 662.16 ± 0.45
353.08 K, 7000 kPa, x2 = 0.9623 | 663.38 ± 0.46
353.08 K, 8000 kPa, x2 = 0.9623 | 664.55 ± 0.46
353.08 K, 9000 kPa, x2 = 0.9623 | 665.71 ± 0.47
353.08 K, 10000 kPa, x2 = 0.9623 | 666.85 ± 0.48
353.08 K, 10990 kPa, x2 = 0.9623 | 667.94 ± 0.48
353.08 K, 12000 kPa, x2 = 0.9623 | 669.1 ± 0.49
353.08 K, 13000 kPa, x2 = 0.9623 | 670.16 ± 0.5
353.08 K, 14000 kPa, x2 = 0.9623 | 671.22 ± 0.5
353.08 K, 15000 kPa, x2 = 0.9623 | 672.32 ± 0.51
353.08 K, 16000 kPa, x2 = 0.9623 | 673.37 ± 0.52
353.08 K, 17000 kPa, x2 = 0.9623 | 674.4 ± 0.52
353.08 K, 18000 kPa, x2 = 0.9623 | 675.38 ± 0.53
353.08 K, 19000 kPa, x2 = 0.9623 | 676.37 ± 0.54
353.08 K, 20000 kPa, x2 = 0.9623 | 677.3 ± 0.55
353.08 K, 21000 kPa, x2 = 0.9623 | 678.26 ± 0.55
353.08 K, 22000 kPa, x2 = 0.9623 | 679.19 ± 0.56
353.08 K, 23000 kPa, x2 = 0.9623 | 680.04 ± 0.57
353.08 K, 24000 kPa, x2 = 0.9623 | 680.91 ± 0.58
353.08 K, 25000 kPa, x2 = 0.9623 | 681.75 ± 0.58
353.12 K, 1000 kPa, x2 = 0.0616 | 683.44 ± 0.42
353.12 K, 1000 kPa, x2 = 0.2801 | 678.06 ± 0.42
353.12 K, 1000 kPa, x2 = 0.5314 | 670.91 ± 0.42
353.12 K, 1000 kPa, x2 = 0.7736 | 663 ± 0.42
353.12 K, 2000 kPa, x2 = 0.0616 | 684.54 ± 0.42
353.12 K, 2000 kPa, x2 = 0.2801 | 679.14 ± 0.42
353.12 K, 2000 kPa, x2 = 0.5314 | 672.1 ± 0.42
353.12 K, 2000 kPa, x2 = 0.7736 | 664.25 ± 0.43
353.12 K, 3000 kPa, x2 = 0.0616 | 685.62 ± 0.42
353.12 K, 3000 kPa, x2 = 0.2801 | 680.24 ± 0.43
353.12 K, 3000 kPa, x2 = 0.5314 | 673.23 ± 0.43
353.12 K, 3000 kPa, x2 = 0.7736 | 665.41 ± 0.43
353.12 K, 4000 kPa, x2 = 0.0616 | 686.69 ± 0.43
353.12 K, 4000 kPa, x2 = 0.2801 | 681.31 ± 0.43
353.12 K, 4000 kPa, x2 = 0.5314 | 674.37 ± 0.43
353.12 K, 4000 kPa, x2 = 0.7736 | 666.6 ± 0.44
353.12 K, 5000 kPa, x2 = 0.0616 | 687.76 ± 0.43
353.12 K, 5000 kPa, x2 = 0.2801 | 682.4 ± 0.44
353.12 K, 5000 kPa, x2 = 0.5314 | 675.52 ± 0.44
353.12 K, 5000 kPa, x2 = 0.7736 | 667.77 ± 0.44
353.12 K, 6000 kPa, x2 = 0.0616 | 688.82 ± 0.44
353.12 K, 6000 kPa, x2 = 0.2801 | 683.48 ± 0.44
353.12 K, 6000 kPa, x2 = 0.5314 | 676.65 ± 0.44
353.12 K, 6000 kPa, x2 = 0.7736 | 668.95 ± 0.45
353.12 K, 7000 kPa, x2 = 0.0616 | 689.85 ± 0.44
353.12 K, 7000 kPa, x2 = 0.2801 | 684.52 ± 0.45
353.12 K, 7000 kPa, x2 = 0.5314 | 677.77 ± 0.45
353.12 K, 7000 kPa, x2 = 0.7736 | 670.08 ± 0.45
353.12 K, 8000 kPa, x2 = 0.0616 | 690.88 ± 0.45
353.12 K, 8000 kPa, x2 = 0.2801 | 685.57 ± 0.45
353.12 K, 8000 kPa, x2 = 0.5314 | 678.86 ± 0.46
353.12 K, 8000 kPa, x2 = 0.7736 | 671.21 ± 0.46
353.12 K, 9000 kPa, x2 = 0.0616 | 691.9 ± 0.45
353.12 K, 9000 kPa, x2 = 0.2801 | 686.58 ± 0.46
353.12 K, 9000 kPa, x2 = 0.5314 | 679.93 ± 0.46
353.12 K, 9000 kPa, x2 = 0.7736 | 672.31 ± 0.47
353.12 K, 10000 kPa, x2 = 0.0616 | 692.88 ± 0.46
